Molecules are shown by their SMILES. “Also recorded” adds a separate entry of the source.

The values below come from patent publication US6943187B2, “Pyrrolidine derivative hair growth compositions and uses” (GPI Nil Holdings, Inc., priority 1997, dated 2005).

One test concerns the target FKBP12 (Homo sapiens, UniProt P62942). As to the kind of experiment: Inhibition of peptidyl-prolyl isomerase (rotamase) activity, chymotrypsin-coupled assay (Ki test procedure). Type of test: biochemical. The settings on record: apparent Ki, rotamase inhibition of FKBP, substrate N-succinyl-Ala-Ala-Pro-Phe-p-nitroanilide. The procedure: The inhibition of the prolyl peptidyl cis-trans isomerase activity of FKBP may be measured as an indicator of this affinity.
The cis-trans isomerization of an alanine-proline bond in a model substrate, N-succinyl-Ala-Ala-Pro-Phe-p-nitroanilide, is monitored spectrophotometrically in a chymotrypsin-coupled assay, which releases para-nitroanilide from the trans form of the substrate. The inhibition of this reaction caused by the addition of different concentrations of inhibitor is determined, and the data is analyzed as a change in first-order rate constant as a function of inhibitor concentration to yield the apparent K1 values.
In a plastic cuvette are added 950 ml of ice cold assay buffer (25 mM HEPES, pH 7.8, 100 mM NaCl), 10 ml of FKBP (2.5 mM in 10 mM Tris-Cl pH 7.5, 100 mM NaCl, 1 mM dithiothreitol), 25 ml of chymotrypsin (50 mg/ml in 1 mM HCl) and 10 ml of test compound at various concentrations in dimethyl sulfoxide.

The next test concerns hair growth. The settings on record: topical, but not oral, application; cited from earlier work.
In a further test the test system is C57 black 6 mice. Briefly: In vivo hair generation test, Experiment A (topical, shaved area). The settings on record: 30 μM topical in 20% propylene glycol, 3 applications over 5 days, after six weeks; listed as GPI 1046. The text has this: Care was taken not to nick or cause abrasion to the underlaying dermal layers. The animals were in anagen growth phase, as indicated by the pinkish color of the skin. […] Hair growth was quantitated by the percent of shaved area covered by new hair growth during this time period.

FKBP12, sequence (P62942 whole entry, species assumed): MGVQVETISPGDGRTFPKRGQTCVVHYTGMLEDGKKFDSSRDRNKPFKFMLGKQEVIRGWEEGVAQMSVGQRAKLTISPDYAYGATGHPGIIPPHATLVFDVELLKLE

On to `CC(C)(C)C(=O)C(=O)N1CCC[C@H]1C(=O)OCCCc1cccnc1` [Compound 24, 3-(3-pyridyl)-1-propyl (2S)-1-(2-tert-butyl-1,2-dioxoethyl)-2-pyrrolidinecarboxylate], for which the Ki on FKBP12 turned out to be 3 nM.
For the molecule `C=CC[C@@H]1/C=C(\C)C[C@H](C)C[C@H](OC)[C@H]2O[C@@](O)(C(=O)C(=O)N3CCCC[C@H]3C(=O)O[C@H](/C(C)=C/[C@@H]3CC[C@@H](O)[C@H](OC)C3)[C@H](C)[C@@H](O)CC1=O)[C@H](C)C[C@@H]2OC` [FK506], the “stimulation of hair growth” value in the test with hair growth is “stimulates hair growth in a dose-dependent manner”.
For `CCC(C)(C)C(=O)C(=O)N1CCC[C@H]1C(=O)OCCC(c1ccccc1)c1ccccc1` [Compound 25, 3,3-diphenyl-1-propyl (2S)-1-(3,3-dimethyl-1,2-dioxopentyl)-2-pyrrolidinecarboxylate], the Ki at FKBP12 came out at 5 nM.
For the molecule `CCC(C)(C)C(=O)C(=O)N1CCC[C@H]1C(=O)OCCCc1cc(OC)c(OC)c(OC)c1` [Compound 3, 3-(3,4,5-trimethoxyphenyl)-1-propyl (2S)-1-(3,3-dimethyl-1,2-dioxopentyl)-2-pyrrolidine-carboxylate], the Ki at FKBP12 was 200 nM.
For `O=C(CCC1CCCCC1)C(=O)N1CCC[C@H]1C(=O)OCCCc1cccnc1` [Compound 23, 3-(3-pyridyl)-1-propyl (2S)-1-(2-cyclohexylethyl-1,2-dioxoethyl)-2-pyrrolidinecarboxylate], the Ki on FKBP12 came to 1400 nM.
For the molecule `CC(C)(C)C(=O)C(=O)N1CCC[C@H]1C(=O)OCCC(c1ccccc1)c1ccccc1` [Compound 28, 3,3-Diphenyl-1-propyl (2S)-1-(3,3-dimethyl-1,2-dioxobutyl)-2-pyrrolidinecarboxylate], on FKBP12, the Ki was 5 nM.
Same read-out and setting: under `O=C(CCC1CCCCC1)C(=O)N1CCC[C@H]1C(=O)OCCCc1ccccc1` [Compound 22, 3-phenyl-1-propyl (2S)-1-(2-cyclohexyl-ethyl-1,2-dioxoethyl)-2-pyrrolidinecarboxylate] stands 1020 nM; under `CCC(C)(C)C(=O)C(=O)N1CCC[C@H]1C(=O)OCCCc1ccccn1` [Compound 18, 3-(2-Pyridyl)-1-propyl (2S)-1-(3,3-dimethyl-1,2-dioxopentyl)-2-pyrrolidinecarboxylate], 195 nM; under `CCC(C)(C)C(=O)C(=O)N1CCC[C@H]1C(=O)OCCCC1CCCCC1` [Compound 7, 3-cyclohexyl-1-propyl (2S)-1-(3,3-dimethyl-1,2-dioxopentyl)-2-pyrrolidinecarboxylate], 200 nM.
`CC(C)(C)C(=O)C(=O)N1CCC[C@H]1C(=O)OCCCc1ccccc1` [Compound 21, 3-phenyl-1-propyl (2S)-1-(2-tert-butyl-1,2-dioxoethyl)-2-pyrrolidinecarboxylate]: the Ki on FKBP12 was 95 nM.
For the molecule `CCC(C)(C)C(=O)C(=O)N1CCC[C@H]1C(=O)OCCCc1ccncc1` [Compound 19, 3-(4-Pyridyl)-1-propyl (2S)-1-(3,3-dimethyl-1,2-dioxopentyl)-2-pyrrolidinecarboxylate], the Ki on FKBP12 came out at 23 nM.
On to `CCC(C)(C)C(=O)C(=O)N1CCC[C@H]1C(=O)OCCCc1ccc2c(c1)OCO2` [Compound 5, 3-(4,5-methylenedioxyphenyl)-1-propyl (2S)-1-(3,3-dimethyl-1,2-dioxopentyl)-2-pyrrolidine-carboxylate], for which, at FKBP12, the Ki was determined as 170 nM.
Regarding `CCC(C)(C)C(=O)C(=O)N1CCC[C@H]1C(=O)OCCCc1cccnc1` [Compound 17, 3-(3-Pyridyl)-1-propyl (2S)-1-(3,3-dimethyl-1,2-dioxopentyl)-2-pyrrolidinecarboxylate], the Ki on FKBP12 turned out to be 5 nM. In addition, in the test on C57 black 6 mice, the “hair regrowth in the shaved area” value is “essentially, complete hair regrowth; also recorded: essentially complete hair regrowth”.
As for `CCC(C)(C)C(=O)C(=O)N1CCC[C@H]1C(=O)OCCc1cc(OC)c(OC)c(OC)c1` [Compound 16, 2-(3,4,5-trimethoxyphenyl)-1-ethyl (2S)-1-(3,3-dimethyl-1,2-dioxopentyl)-2-pyrrolidine-carboxylate], the Ki at FKBP12 is 120 nM.
Same read-out and setting: in the case of `CCC(C)(C)C(=O)C(=O)N1CCC[C@H]1C(=O)OCCCc1cc(OC)ccc1OC` [Compound 14, 3-(2,5-dimethoxyphenyl)-1-propyl (2S)-1-(3,3-dimethyl-1,2-dioxopentyl)-2-pyrrolidine-carboxylate] it was 250 nM.
